Like-named read-outs stand apart in the source and are kept apart here.

The text below walks through data of paper PMC9721423, “Novel benzo chromene derivatives: design, synthesis, molecular docking, cell cycle arrest, and apoptosis induction in human acute myeloid leukemia HL-60 cells” (Journal of Enzyme Inhibition and Medicinal Chemistry, 2022).

Experiment in all cases: cells
Common to all, as to set-up: species or system NCI-60 human tumour cell lines; NCI-60 five-dose growth inhibition screen, sulforhodamine B protein stain

In one test the test system is COLO 205. As to conditions: Homo sapiens, COLO 205, 48 h. Here is the method: (§1) All the newly synthesised 28 compounds were selected for single-dose testing. NCI60 single-dose testing is performed in all 60 cell lines according to the reported assay (National Cancer Institute, https://dtp.cancer.gov/) (National Cancer Institute https://dtp.cancer.gov/discovery_development/nci-60/), compounds were dissolved in DMSO: glycerol […] and are stored in a −70 °C freezer. The prepared compounds were added at single concentration of 1 0^−5 M and the culture was incubated for 48 h. End point determinations were made with a protein binding dye, sulforhodamine B (SRB). The human tumour cell lines were derived from nine different cancer types: leukaemia, melanoma, lung, colon, central nervous system (CNS), ovarian, renal, prostate, and breast cancers. Dose–response curves for these compounds were created by plotting the percentage growth (PGs or % growth) against log10 of the corresponding concentration for every cell line. Three response parameters, GI50 (Median Growth Inhibitory Concentration), TGI (Total Growth Inhibitory Concentration), and LC50 (Median Lethal Concentration) were calculated[54] (National Cancer Institute, https://dtp.cancer.gov/discovery_development/nci-60/) (National Cancer Institute, https://dtp.cancer.gov/)[55] for compounds 5a and 6a. […] Furthermore, the average sensitivity of all cell lines towards the compound is termed as the full panel mean graph midpoints (MG-MID). The ratio obtained by dividing the full panel mean graph midpoints (MG-MID) concentration by the individual subpanel MG-MID concentrations (obtained as the average sensitivity of all cell lines of a particular subpanel towards the test compound) is considered a criterion for the compound selectivity towards the corresponding cell line. Ratios greater than 6 indicate high selectivity while ratios between 3 and 6 refer to moderate selectivity whereas compounds not meeting either of these criteria were rated non-selective[56].

The next test concerns DU-145. The following applies: Homo sapiens, DU-145, 48 h. Here is the method: as §1
The subject of the next test is HCC-2998. The following applies: Homo sapiens, HCC 2998, 48 h. Here is the method: as §1
The next test has as its system HOP-62. As to conditions: Homo sapiens, HOP-62, 48 h. Here is the method:
as §1

A further test relates to HS 578T. As to conditions: Homo sapiens, Hs-578T, 48 h. On the procedure:
as §1

A further test deals with KM12. The following applies: Homo sapiens, KM12, 48 h. On the procedure:
as §1

The subject of another test is MALME-3M. As to conditions: Homo sapiens, Malme-3M, 48 h. On the procedure:
as §1

For a further test, the system named is NCI-H460. The following applies: Homo sapiens, NCI-H460, 48 h. Here is the method: as §1
Another test deals with NCI/ADR-RES. The following applies: Homo sapiens, NCI/ADR-RES, 48 h. On the procedure: as §1
The test system of another test is OVCAR-3. The following applies: Homo sapiens, OVCAR-3, 48 h. Here is the method:
as §1

The next test relates to OVCAR-8. As to conditions: Homo sapiens, OVCAR-8, 48 h. Here is the method:
as §1

In the next test the test system is PC-3. The following applies: Homo sapiens, PC-3, 48 h. Here is the method:
as §1

The next test relates to RPMI-8226. As to conditions: Homo sapiens, RPMI-8226, 48 h. Here is the method: as §1
A further test deals with RXF 393. The following applies: Homo sapiens, RXF 393, 48 h. Here is the method:
as §1

The test system of another test is SK-OV-3. As to conditions: Homo sapiens, SK-OV-3, 48 h. Here is the method:
as §1

For a further test, the system named is SW-620. As to conditions: Homo sapiens, SW-620, 48 h. Here is the method:
as §1

The subject of another test is U251. The following applies: Homo sapiens, U-251, 48 h. Here is the method:
as §1

As for `CC(=O)NC1=C(C#N)C(c2ccccc2)c2ccc3ccccc3c2O1` (stereo not shown) [6a, N-(3-Cyano-4-phenyl-4H-benzo[h]chromen-2-yl)acetamide], the concentration for 50% growth inhibition (GI50) (as a rule, the concentration at which growth is held to half of that of the control) came to 610 nM in the test with COLO 205 (read-out: GI50 6a); 730 nM in the test with DU-145 (read-out: GI50 6a); 1430 nM in the test on HCC-2998 (read-out: GI50 6a); 690 nM with HOP-62 (read-out: GI50 6a); 360 nM with HS 578T (read-out: GI50 6a); 430 nM with KM12 (read-out: GI50 6a). In addition, the 50% growth inhibitory concentration (GI50) in the test on MALME-3M (read-out: GI50 6a) is 670 nM; in the test with NCI-H460 (read-out: GI50 6a), 370 nM; in the test on NCI/ADR-RES (read-out: GI50 6a), 300 nM; in the test on OVCAR-3 (read-out: GI50 6a) it was 340 nM; with OVCAR-8 (read-out: GI50 6a), 630 nM; in the test with PC-3 (read-out: GI50 6a), 460 nM. Besides, the concentration for 50% growth inhibition (GI50) with RPMI-8226 (read-out: GI50 6a) came to 410 nM; with RXF 393 (read-out: GI50 6a), 270 nM; with SK-OV-3 (read-out: GI50 6a) it was 490 nM; in the test with SW-620 (read-out: GI50 6a), 410 nM; in the test on U251 (read-out: GI50 6a), 490 nM.
In the case of `N=C(NO)C1=C(N)Oc2c(ccc3ccccc23)C1c1ccccc1` (stereo not shown) [5a, 2-Amino-4-phenyl-N-hydroxy-4H-benzo[h]chromene-3-carboxamidine], the concentration for 50% growth inhibition (GI50) was 460 nM in the test with COLO 205 (read-out: GI50 5a); 460 nM in the test with DU-145 (read-out: GI50 5a); 370 nM in the test with HCC-2998 (read-out: GI50 5a); 380 nM with HOP-62 (read-out: GI50 5a); 230 nM with HS 578T (read-out: GI50 5a); 220 nM with KM12 (read-out: GI50 5a). Besides, the GI50 in the test with MALME-3M (read-out: GI50 5a) is 15600 nM; in the test on NCI-H460 (read-out: GI50 5a), 310 nM; in the test on NCI/ADR-RES (read-out: GI50 5a), 60 nM; in the test with OVCAR-3 (read-out: GI50 5a) it was 180 nM; in the test on OVCAR-8 (read-out: GI50 5a), 400 nM; with PC-3 (read-out: GI50 5a), 230 nM. The GI50 with RPMI-8226 (read-out: GI50 5a) is 380 nM; with RXF 393 (read-out: GI50 5a), 200 nM; with SK-OV-3 (read-out: GI50 5a), 620 nM; with SW-620 (read-out: GI50 5a), 170 nM; with U251 (read-out: GI50 5a), 380 nM.
